Consider 1 compound from patent publication US12055546B2, “Fluorescent probe for detecting carboxypeptidase activity” (THE UNIVERSITY OF TOKYO, priority 2018, dated 2024).

The nature of data set [1]: Absorption/fluorescence spectrum measurement. The class given is physicochemical. As for the experimental part: The absorption spectrum was measured using UV-2450 (SIMADZU), and the fluorescence spectrum was measured using F-7000 (HITACHI).
FIG. 9 and FIG. 10 illustrate the results of the absorption/fluorescence spectrum measurement of 2Me5GluAF-TG (Compound 32). […] The absorption spectrum was measured using UV-2450 (SIMADZU), and the fluorescence spectrum was measured using F-7000 (HITACHI).

Data set [2] concerns the target T1, PSMA (Homo sapiens, UniProt Q04609). As to the kind of experiment: Reactivity with PSMA purified enzyme (Example 6). It is filed as biochemical.
For data set [3], the system named is LNCaP cell lysate (PSMA expressing prostate cancer cell). The data set can be described thus: Cell lysate assay, LNCaP. The class given is biochemical. The conditions noted are these: probe 10 μM, 37° C. On the procedure:
(§1) A PSMA specific inhibitor 2-PMPA (10 μM) was added to one of LNCaP cell lysate samples at the same time, and measurement was performed. • (2) The obtained fluorescence intensity of each lysate was normalized based on 0 minutes being set to 1, and then plot was performed with the incubation time on the horizontal axis.
(§2) A solution (20 μM, 100 μL) of 2Me5GluAF-TG (Compound 32) and a cell lysate (0.36 mg/mL, 100 μL) were reacted in TBS-T buffer at 37° C., and the fluorescence intensity was measured every 30 minutes. The measurement procedure is as described in Example 3.
(§3) Ex/em: 485/535 nm, n=3, probe final concentration: 10 μM, inhibitor (2-PMPA) concentration: 10 μM

For data set [4], the system named is PC3 cell lysate (PSMA non-expressing prostate cancer cell). The data set can be described thus: Cell lysate assay, PC3. It is filed as biochemical. The conditions noted are these: probe 10 μM, 37° C. On the procedure:
as §1, §2, §3

Data set [5] has as its system LNCaP cells (high PSMA expression). The data set can be described thus: Live cell imaging, LNCaP cells (confocal microscope). It is filed as cell-based. On the procedure:
(§4) A solution (final concentration: 10 μM) of 2Me5GluAF-TG (Compound 32) diluted with HBSS(+) was added to LNCaP cells (high PSMA expression) or PC3 cells (PSMA non-expression), and a fluorescence image was taken by a confocal microscope every 1 hour under the following conditions while culturing at 37° C. and 5% CO2.
A probe (2Me5GluAF-TG) and an inhibitor were added, and after culturing at 37° C. and 5% CO2 for 15 hours, a fluorescence image was taken with a confocal microscope. Probe concentration: 10 μM, inhibitor (2-PMPA) concentration: 10 μM, Ex/em: 490/500-600 nm, Scale bar: 50 μm.
Ten intracellular regions and ten extracellular regions were each surrounded by ROI, and an average value of the fluorescence intensity was calculated. FIG. 18a illustrates the taken fluorescence image, and FIG. 18b illustrates the average value of the fluorescence intensity with and without addition of the inhibitor.

Data set [6] deals with PC3 cells (PSMA non-expression). As to the kind of experiment: Live cell imaging, PC3 cells (confocal microscope). The class given is cell-based. The conditions noted are these: probe 10 μM in HBSS(+), image every 1 hour. As for the experimental part: as §4
Data set [7] deals with T1, PSMA. As to the kind of experiment: LC-UV/MS analysis of PSMA reaction solution. The class given is biochemical. The conditions noted are these: 10 hours. As for the experimental part: A solution, prepared after recombinant human PSMA and 2Me5GluAF-TG (Compound 32) were reacted for 10 hours, and 2Me5GluAF-TG and 2MeTG synthesized as preparations were subjected to LC-UV/MS analysis.
Probe concentration: 10 μM (2Me5GluAF-TG, enzyme reaction solution), 2 μM (2MeTG). The results are illustrated in FIG. 13 and FIG. 14.

In a further data set the test system is LNCaP cells. The data set can be described thus: LC-UV/MS analysis of extracellular fluid after LNCaP imaging. The class given is cell-based. On the procedure:
After imaging of LNCaP cells using 2Me5GluAF-TG, a collected extracellular fluid, and 2Me5GluAF-TG and 2MeTG synthesized as preparations were subjected to the LC-MS analysis under the following conditions.
Probe concentration: 10 μM (2Me5GluAF-TG, extracellular fluid), 2 μM (2MeTG).

Data set [8] deals with human prostate cancer surgical specimen. As to the kind of experiment: Study using human prostate cancer surgical specimen. The conditions noted are these: 2.50 μM probe solution in 1×TBS, 40° C., up to 4 hours. On the procedure:
• 1. Wash surgical specimen with 1×TBS buffer • 2. Add dropwise 2.50 μM of 2Me5GluAF-TG solution (diluted with 1×TBS buffer) so that the whole specimen is immersed. • 3. While heating to 40° C. with a heater, take a fluorescence image by Maestro for up to 4 hours • 4. Judge from the fluorescence image taken 4 hours after immersion, select and cut out several sites showing bright fluorescence and several sites showing no fluorescence, and fix with a 10% formalin solution • 5. Request a pathologist to perform HE staining/PSMA immunostaining on each site and evaluate a rate of cancer sites and PSMA expression
The results of using four types of specimens are illustrated in FIG. 21 to FIG. 24. FIG. 25 illustrates a result obtained by changing the above protocol (changing a method so that a surface is covered with gauze soaked in a probe solution, temporarily removing the gauze, and taking a fluorescence image). • (a) of each figure illustrates a photograph before immersion of the surgical specimen in a Me5GluAF-TG solution and a photograph taken 4 hours after the immersion (the right side is a fluorescence image). The graph on the left side of (b) illustrates a change in fluorescence intensity at a selected site of the surgical specimen from the immersion in the Me5GluAF-TG solution to 4 hours after the immersion. […]

T1 sequence (Q04609 whole entry): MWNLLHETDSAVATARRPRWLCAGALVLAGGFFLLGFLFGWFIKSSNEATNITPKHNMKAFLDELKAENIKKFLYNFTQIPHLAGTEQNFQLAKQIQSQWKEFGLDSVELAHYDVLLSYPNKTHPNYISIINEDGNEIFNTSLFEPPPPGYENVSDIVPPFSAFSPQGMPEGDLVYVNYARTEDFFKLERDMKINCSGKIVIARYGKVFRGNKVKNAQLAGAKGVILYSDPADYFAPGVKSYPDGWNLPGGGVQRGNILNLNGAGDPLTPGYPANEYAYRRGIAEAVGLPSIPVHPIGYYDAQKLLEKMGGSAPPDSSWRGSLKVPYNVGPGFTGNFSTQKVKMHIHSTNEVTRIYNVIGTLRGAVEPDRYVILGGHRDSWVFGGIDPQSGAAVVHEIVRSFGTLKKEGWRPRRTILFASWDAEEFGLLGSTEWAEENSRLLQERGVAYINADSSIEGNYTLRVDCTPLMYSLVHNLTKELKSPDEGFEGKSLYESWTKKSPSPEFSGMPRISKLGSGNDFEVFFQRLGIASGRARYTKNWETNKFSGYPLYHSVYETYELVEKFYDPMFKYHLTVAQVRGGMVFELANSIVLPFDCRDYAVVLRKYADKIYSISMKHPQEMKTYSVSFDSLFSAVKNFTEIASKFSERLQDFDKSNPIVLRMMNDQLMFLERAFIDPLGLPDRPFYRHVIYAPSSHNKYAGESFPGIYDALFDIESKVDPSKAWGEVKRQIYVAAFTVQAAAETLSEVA

`Cc1ccc(/N=N/C(=O)N[C@@H](CCC(=O)O)C(=O)O)cc1-c1c2ccc(=O)cc-2oc2cc(O)ccc12` [Compound 2Me5GluAF-TG] registered a Φfl in data set [1] (0.2M phosphate buffer (pH 7.4)) of 0.002. In data set [1] (Table 3), the “λabs (nm)” value is given as 495 nm and the “λem (nm)” value came out at 516 nm. Also, in data set [1] (as compared to fluorescein), the “Fluorescence under physiological conditions” value was “almost no fluorescencence”. Besides, at PSMA [2] (10 μM probe, 0.44 μg PSMA, 1×TBS, 37° C.), the “Increase in fluorescence with PSMA” value is given as “the increase in fluorescence due to the enzymatic reaction was observed”. For the same compound, on PSMA [2] (inhibitor 2-PMPA 10 μM), the “Increase in fluorescence with PSMA in presence of inhibitor” value is on record as “No increase in fluorescence was observed”. Also, the “Increase in fluorescence in LNCaP cell lysate with inhibitor” value in data set [3] (2-PMPA 10 μM) is reported as “almost no increase in fluorescence was observed”. For the same compound, the “Increase in fluorescence in LNCaP cell lysate” value in data set [3] is recorded as “a significant increase in fluorescence was observed”. Moreover, the “Increase in fluorescence in PC3 cell lysate” value in [4] is recorded as “almost no increase in fluorescence was observed”. The “Fluorescence image intensity in LNCaP cells” value in [5] (probe 10 μM in HBSS(+), image every 1 hour) is listed as “the fluorescence intensity of the fluorescence image increased with the passage of time”. For the same compound, the “Fluorescence image intensity with inhibitor” value in [5] (probe 10 μM, 2-PMPA 10 μM, 15 hours) is listed as “the intensity of the fluorescence image does not increase”. In addition, in [5] (probe 10 μM, no inhibitor, 15 hours), the “Average fluorescence intensity inside versus outside the cell” value is “the average value of the fluorescence intensity inside the cell is much higher than that outside the cell”. Further, the “Fluorescence image in PC3 cells” value in data set [6] is recorded as “no change was observed in the fluorescence image”. In addition, the “Stability of the probe (LC-UV/MS)” value on PSMA [7] (inhibitor (2-PMPA) added or absence of PSMA) is “stable”. Further, the “Products of the reaction with PSMA (LC-UV/MS)” value at PSMA [7] (probe 10 μM, in the presence of PSMA) is 2MeTG and 2Me5OH-TG exhibiting fluorescence in the presence of PSMA were produced. The “Product in extracellular fluid (LC-MS)” value with LNCaP cells (absence of the inhibitor (2-PMPA)) was “production of fluorescent 2MeTG was confirmed”. Further, the “Stability of the probe in extracellular fluid (LC-MS)” value in the data set on LNCaP cells (inhibitor added) is “stable”. The “Relation of fluorescence increase to cancer site / PSMA expression” value in data set [8] was “a rough correlation between the increase in fluorescence intensity and the presence or absence of the cancer site or a PSMA expression level”.
